Measured values taken from patent publication US11882828B2, “Mosquito vector control compositions, methods and products utilizing same” (priority 2015, dated 2024).

Tests used:
[1] = system: Anopheles stephensi (Indian malaria mosquito); assay: whole plant or invertebrate; details: Anopheles stephensi
Description: […] Once the deposits were dry, five non-blood fed adult female Anopheles stephensi (between two to five days old) were added to each well, and sustained with a 10% sucrose solution in a cotton wool plug. Assessment of the knockdown after 1 hour, and mortality after 48 hours was carried out.
(§1) In case of multiple tests, the mean value is reported.

[2] = system: Aedes aegypti (Yellow fever mosquito); assay: whole plant or invertebrate; details: Aedes aegypti
Description: […] Once the deposits were dry, five non-blood fed adult female Aedes aegypti (between two to five days old) were added to each well, and sustained with a 10% sucrose solution in a cotton wool plug. Assessment of the knockdown after 1 hour, and mortality after 48 hours was carried out.
as §1

An. stephensi = assay: Example B4: cross resistance study, 6-well plate; format: in vivo
Description: (§2) In each study, a set of plates were infested with a known insecticide susceptible strain of mosquitoes from the same genera as the resistant strains.
(§3) Assessment of the knockdown after 60 minutes and mortality after 24 hours was carried out. Each treatment was replicated a minimum of four times, with the mean knockdown or mortality recorded.
(§4) A comparison of the knockdown and mortality of the resistant strain of mosquitoes was made to that of the susceptible to identify evidence of cross resistance.

Ae. aegypti Caymon = assay: Example B4: cross resistance study, 6-well plate; format: in vivo
Description: as §2, §3, §4

An. Gambiae Tiassalé = assay: Example B4: cross resistance study, 6-well plate; format: in vivo
Description: as §2, §3, §4

An. Gambiae Kisumu rdl = assay: Example B4: cross resistance study, 6-well plate; format: in vivo
Description: as §2, §3, §4

Ae. Aegypti New Orleans = assay: Example B4: cross resistance study, 6-well plate; format: in vivo
Description: as §2, §3, §4

An. Arabiensis Moz sus = assay: Example B4: cross resistance study, 6-well plate; format: in vivo
Description: as §2, §3, §4

An. Gambiae Kisumu sus = assay: Example B4: cross resistance study, 6-well plate; format: in vivo
Description: as §2, §3, §4

Anopheles stephensi [3] = assay: Example B7: evaluation of insecticide impregnated polymer surfaces; format: in vivo; details: AI content 2 wt %; for mortality: 24 hours after exposure; for knock-down: after one hour
Method in brief: (§5)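 Methoxyacrylates were melt-blended into LDPE, HDPE or PP and moulded into sheets about 0.1 mm thick. Ten 3–5-day-old non-blood-fed adult females were held 24 h on 10% sucrose, then confined in a Petri dish under the treated sheet for 1 h. Knockdown was scored at 1 h and mortality 24 h after exposure.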

Aedes aegypti [4] = assay: as above; format: in vivo; details: AI content 2 wt %, polymer 4 to 6 weeks old; for mortality: 24 hours after exposure; for knock-down: after one hour
Method in brief: as §5

Anopheles stephensi [5] = assay: whole plant or invertebrate; details: Anopheles stephensi, 48 h
Method in brief: (§6)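 Non-blood-fed adult females (2–5 days old), ten per well, were placed on dried ethanol deposits of the test compound at a defined concentration and fed 10% sucrose. Mortality was scored at 48 hours as the mean of two replicates.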

Aedes aegypti [6] = assay: whole plant or invertebrate; details: Aedes aegypti, 48 h
Method in brief: as §6

SMILES: CO/C=C(/C(=O)OC)c1ccccc1Oc1nc(C(C)(C)C)ns1 [Compound 7, Methyl (E)-2-[2-[(3-tert-butyl-1,2,4-thiadiazol-5-yl)oxy]phenyl]-3-methoxy-prop-2-enoate]
- pest or weed control at 20 ppm ([1]; 1 h, read-out: Knockdown): 67%
- mortality at 20 ppm ([1]; 48 h): 100%
- pest or weed control at 20 ppm ([2]; 1 h, read-out: Knockdown): 100%
- mortality at 20 ppm ([2]; 48 h): 100%
- Knockdown (An. stephensi; 2.50 ppm, after 60 minutes, An. stephensi): 40%
- mortality at 2.5 ppm (An. stephensi; Anopheles stephensi, 24 h): 100%
- Knockdown (Ae. aegypti Caymon; 2.50 ppm, after 60 minutes, Caymon): 52%
- mortality at 2.5 ppm (Ae. aegypti Caymon; Aedes aegypti, 24 h): 28%
- Knockdown (An. Gambiae Tiassalé; 2.50 ppm, after 60 minutes, Tiassalé): 90%
- mortality at 2.5 ppm (An. Gambiae Tiassalé; Anopheles gambiae, 24 h): 85%
- Knockdown (An. Gambiae Kisumu rdl; 2.50 ppm, after 60 minutes, Kisumu rdl): 90%
- mortality at 2.5 ppm (An. Gambiae Kisumu rdl; Anopheles gambiae, 24 h): 100%
- Knockdown (Ae. Aegypti New Orleans; 2.50 ppm, after 60 minutes, New Orleans): 38%
- mortality at 2.5 ppm (Ae. Aegypti New Orleans; Aedes aegypti, 24 h): 100%
- Knockdown (An. Arabiensis Moz sus; 2.50 ppm, after 60 minutes, Moz sus): 95%
- mortality at 2.5 ppm (An. Arabiensis Moz sus; Anopheles arabiensis, 24 h): 100%
- Knockdown (An. Gambiae Kisumu sus; 2.50 ppm, after 60 minutes, Kisumu sus): 100%
- mortality at 2.5 ppm (An. Gambiae Kisumu sus; Anopheles gambiae, 24 h): 100%
- mortality (Anopheles stephensi [3]; HDPE, polymer 4 to 6 weeks old): 87%
- knock-down (Anopheles stephensi [3]; HDPE, polymer 4 to 6 weeks old): 93%
- mortality (Anopheles stephensi [3]; HDPE, polymer 6 to 8 weeks old): 87%
- knock-down (Anopheles stephensi [3]; HDPE, polymer 6 to 8 weeks old): 100%
- mortality (Anopheles stephensi [3]; LDPE, polymer 4 to 6 weeks old): 97%
- knock-down (Anopheles stephensi [3]; LDPE, polymer 4 to 6 weeks old): 100%
- mortality (Anopheles stephensi [3]; LDPE, polymer 6 to 8 weeks old): 100%
- knock-down (Anopheles stephensi [3]; LDPE, polymer 6 to 8 weeks old): 87%
- mortality (Anopheles stephensi [3]; PP, polymer 4 to 6 weeks old): 87%
- knock-down (Anopheles stephensi [3]; PP, polymer 4 to 6 weeks old): 93%
- mortality (Anopheles stephensi [3]; PP, polymer 6 to 8 weeks old): 77%
- knock-down (Anopheles stephensi [3]; PP, polymer 6 to 8 weeks old): 100%
- mortality (Aedes aegypti [4]; HDPE): 47%
- knock-down (Aedes aegypti [4]; HDPE): 83%
- mortality (Aedes aegypti [4]; LDPE): 97%
- knock-down (Aedes aegypti [4]; LDPE): 100%
- mortality (Aedes aegypti [4]; PP): 23%
- knock-down (Aedes aegypti [4]; PP): 67%
- mortality at 5 ppm (Anopheles stephensi [5]): 95%
- mortality at 5 ppm (Aedes aegypti [6]): 78%
